Source: ChEMBL document CHEMBL5052826, “Kif18a inhibitors” (2020)

Target: T1, Kinesin-like protein KIF18A (Homo sapiens, UniProt Q8NI77)
T1 sequence (Q8NI77 whole entry): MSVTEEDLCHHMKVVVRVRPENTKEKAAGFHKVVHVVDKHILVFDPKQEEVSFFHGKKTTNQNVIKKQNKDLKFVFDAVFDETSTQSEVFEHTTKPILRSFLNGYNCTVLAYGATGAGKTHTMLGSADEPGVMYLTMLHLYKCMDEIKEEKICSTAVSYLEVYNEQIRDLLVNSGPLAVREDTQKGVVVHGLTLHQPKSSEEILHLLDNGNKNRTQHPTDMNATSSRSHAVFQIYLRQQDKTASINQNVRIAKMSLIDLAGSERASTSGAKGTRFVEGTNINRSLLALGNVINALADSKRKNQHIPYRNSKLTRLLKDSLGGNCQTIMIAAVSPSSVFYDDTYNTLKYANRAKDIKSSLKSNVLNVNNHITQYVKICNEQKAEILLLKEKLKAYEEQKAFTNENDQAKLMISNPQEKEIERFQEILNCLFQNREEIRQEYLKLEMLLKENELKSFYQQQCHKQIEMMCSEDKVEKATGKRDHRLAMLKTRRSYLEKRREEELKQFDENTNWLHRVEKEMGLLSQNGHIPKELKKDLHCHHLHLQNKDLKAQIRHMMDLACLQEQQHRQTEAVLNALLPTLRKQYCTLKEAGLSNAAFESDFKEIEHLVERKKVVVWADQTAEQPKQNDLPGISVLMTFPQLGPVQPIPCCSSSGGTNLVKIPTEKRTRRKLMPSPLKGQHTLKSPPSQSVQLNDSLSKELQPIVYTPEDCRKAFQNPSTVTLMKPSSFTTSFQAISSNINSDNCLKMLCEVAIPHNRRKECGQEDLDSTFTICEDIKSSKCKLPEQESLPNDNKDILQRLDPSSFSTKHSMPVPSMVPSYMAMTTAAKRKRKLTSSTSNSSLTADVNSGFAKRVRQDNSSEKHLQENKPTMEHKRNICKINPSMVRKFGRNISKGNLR
Assay: Inhibition of recombinant His-tagged human KIF18A (1 to 467 residues) expressed in baculovirus expression system assessed as inhibition of microtubule-stimulated ATPase activity preincubated for 15 mins followed by ATP addition and further incubated for 15 mins and measured after 40 mins by ADP-Glo reagent based assay

| IC50 | Compound |
| --- | --- |
| 0.064 µM | Cc1cc(NC(=O)c2ccc(S(=O)(=O)[C@H](C)CO)cc2N2CCC3(CC2)CC3)nc(N2CCC(F)(F)CC2)n1 |
| 0.186 µM | Cc1cc(NC(=O)c2ccc(S(C)(=O)=O)cc2N2CCC3(CC2)CC3)nc(NC(C)(C)CO)n1 |
| 0.151 µM | Cc1cc(NC(=O)c2ccc(NS(=O)(=O)C[C@H](C)O)cc2N2CCC3(CC2)CC3)nc(N2CCO[C@H](C)C2)n1 |
| 0.057 µM | Cc1cc(NC(=O)c2ccc(S(=O)(=O)[C@@H](C)CO)cc2N2CCC3(CC2)CC3)nc(N2CCC(F)(F)CC2)n1 |
